# Experimental data taken from patent publication US4283398A, “Cephalosporins” (Mitsui Toatsu Chemicals, Inc., priority 1978, dated 1981).
# Read-outs that look alike come from different tables or passages of the source.
# Key:
# Type in all cases: cell-based
# [1] = system: Pseudomonas aeruginosa (NCTC 7244); assay: minimum bactericidal concentration (MBC); settings: NCTC7244, 18 h, subculture on HIA medium, 37° C.
# Experimental: The compounds obtained in Synthesis Examples 1 and 2 were tested in the following manner.
# A suspension of Pseudomonas aeruginosa (NCTC 7244) cultivated at 37° C. for 18 hours in a heart infusion broth medium (HIB medium) in a final amount of 10^5, 10^6 and 10^7 cells/ml in an HIB medium containing each of the test compounds which was obtained in the same way as in Referential Example 1 except that the maximum concentration of the test compound was 200 μg/ml. The bacterial strain was cultivated at 37° C. for 18 hours, and the turbidity of the culture broth was evaluated with the naked eye. The minimum concentration of the test compound at which no turbidity was noted was defined as MIC.
# After the determination of MIC, one platinum loopful of each of the culture broths in various concentrations was taken out from the test tubes, and inoculated in a separately provided plate of an HIA medium not containing the test compound, and incubated at 37° C. for 18 hours. The growth of the bacterial strain was evaluated.
# [2] = system: Staphylococcus aureus (Y-8); assay: minimum growth inhibitory concentration (MIC) method; settings: S. aureus Y-8, HIA medium, 37° C., 18 hours, sodium salts
# Experimental: (§1) The antibacterial activities of the cephalosporins of this invention were measured using the sodium salts of the compounds obtained in Synthesis Examples 1 and 2. The procedure and the results are shown in Referential Example 1.
# (§2) Carbenicillin sodium salt (CB-PC) and cephazoline sodium salt (CEZ) were used as controls.
# (§3) The antibacterial activities of the test compounds against various Gram-positive and Gram-negative bacteria were determined in a customary manner by the minimum growth inhibitory concentration method (MIC method).
# (§4) A commercially available heart infusion agar medium (to be abbreviated HIA medium) was used as an assay medium, and a commercially available trypto-soy bouillon medium (to be abbreviated TSB) was used as a medium for the growth of test bacterial strains.
# (§5) The test compound was diluted with the melted HIA medium to 100 μg/ml as a maximum concentration, and then serially diluted double. The dilutions were poured into sterilized Petri dishes respectively and allowed to cool and solidify to prepare plates containing the test compound.
# (§6) The test bacterial strain was cultivated at 37° C. for 18 to 24 hours in the TSB medium. The culture broth was diluted to 50 to 500 times with a freshly prepared TSB culture medium, and one platinum loopful of the dilution was inoculated in each of the plates containing the test compound. The plate was incubated at 37° C. for 18 hours, and the state of growth of the strain on the plate was observed, and the minimum growth inhibitory concentration (MIC) of the test compound was determined.
# [3] = system: Enterobacter aerogenes (IFO 3320); assay: as above; settings: Klebsiella aerogenes, read-out: Minimum growth inhibitory concentration
# Experimental: as §1, §2, §3, §4, §5, §6
# [4] = system: Pseudomonas aeruginosa (NCTC 7244); assay: as above; settings: NCTC7244, P. aeruginosa NCTC 7244, HIA medium, 37° C., 18 hours, sodium salts
# Experimental: as §1, §2, §3, §4, §5, §6
# [5] = system: Serratia marcescens (S-33); assay: as above; settings: HIA medium, 37° C., 18 hours, sodium salts
# Experimental: as §1, §2, §3, §4, §5, §6
# [6] = system: Pseudomonas aeruginosa (395); assay: as above; settings: P. aeruginosa 395, HIA medium, 37° C., 18 hours, sodium salts
# Experimental: as §1, §2, §3, §4, §5, §6
# Proteus vulgaris (OX-19) = assay: as above; settings: read-out: Minimum growth inhibitory concentration
# Experimental: as §1, §2, §3, §4, §5, §6
# Escherichia coli (NIHJ) = assay: as above; settings: E. coli NIHJ, HIA medium, 37° C., 18 hours, sodium salts
# Experimental: as §1, §2, §3, §4, §5, §6
# [7] = system: Bacillus cereus (IAM 1792); assay: as above; settings: IAM1792, HIA medium, 37° C., 18 hours, sodium salts
# Experimental: as §1, §2, §3, §4, §5, §6
# [8] = system: Klebsiella pneumoniae (ATCC 10031); assay: as above; settings: read-out: Minimum growth inhibitory concentration
# Experimental: as §1, §2, §3, §4, §5, §6
# [9] = system: Escherichia coli (14H114); assay: as above; settings: E. coli 14H114, HIA medium, 37° C., 18 hours, sodium salts
# Experimental: as §1, §2, §3, §4, §5, §6
# [10] = system: Pseudomonas Maltophilia (F-6257); assay: as above; settings: Stenotrophomonas maltophilia, HIA medium, 37° C., 18 hours, sodium salts
# Experimental: as §1, §2, §3, §4, §5, §6
# [11] = system: Pseudomonas aeruginosa (ATCC 10145); assay: as above; settings: ATCC10145, P. aeruginosa ATCC 10145, HIA medium, 37° C., 18 hours, sodium salts
# Experimental: as §1, §2, §3, §4, §5, §6
# [12] = system: Klebsiella pneumoniae (Horino); assay: as above; settings: K. pneumoniae Horino, HIA medium, 37° C., 18 hours, sodium salts
# Experimental: as §1, §2, §3, §4, §5, §6
# [13] = system: Klebsiella pneumoniae (B-172); assay: as above; settings: K. pneumoniae B-172, HIA medium, 37° C., 18 hours, sodium salts
# Experimental: as §1, §2, §3, §4, §5, §6
# Escherichia coli (26R03) = assay: as above; settings: E. coli 26R03, HIA medium, 37° C., 18 hours, sodium salts
# Experimental: as §1, §2, §3, §4, §5, §6
# Escherichia coli (K-12) = assay: as above; settings: E. coli K-12, HIA medium, 37° C., 18 hours, sodium salts
# Experimental: as §1, §2, §3, §4, §5, §6
# Proteus rettgeri (T-2) = assay: as above; settings: Providencia rettgeri, HIA medium, 37° C., 18 hours, sodium salts
# Experimental: as §1, §2, §3, §4, §5, §6
# [14] = system: Staphylococcus aureus (FDA 209P); assay: as above; settings: FDA209P, read-out: Minimum growth inhibitory concentration
# Experimental: as §1, §2, §3, §4, §5, §6
# [15] = system: Salmonella enteritidis (KB-21); assay: as above; settings: Salmonella enterica, read-out: Minimum growth inhibitory concentration
# Experimental: as §1, §2, §3, §4, §5, §6
# [16] = system: Pseudomonas aeruginosa (F1629); assay: as above; settings: P. aeruginosa F1629, HIA medium, 37° C., 18 hours, sodium salts
# Experimental: as §1, §2, §3, §4, §5, §6
# [17] = IFO3320, Enterobacter aerogenes IFO 3320, HIA medium, 37° C., 18 hours, sodium salts
# [18] = Proteus vulgaris OX-19, HIA medium, 37° C., 18 hours, sodium salts
# [19] = ATCC10031, K. pneumoniae ATCC 10031, HIA medium, 37° C., 18 hours, sodium salts
# [20] = S. aureus FDA 209P, HIA medium, 37° C., 18 hours, sodium salts
# [21] = Salmonella enteritidis KB-21, HIA medium, 37° C., 18 hours, sodium salts
Structure (SMILES),MBC ([1]; inoculum 10^5 cells/ml) [µg/mL],MBC ([1]; inoculum 10^6 cells/ml) [µg/mL],MBC ([1]; inoculum 10^7 cells/ml) [µg/mL],MIC [2] [µg/mL],"MIC [3, 17] [µg/mL]",MIC [4] [µg/mL],MIC [5] [µg/mL],MIC [6] [µg/mL],MIC (Proteus vulgaris (OX-19); [18]) [µg/mL],MIC (Escherichia coli (NIHJ)) [µg/mL],MIC [7] [µg/mL],MIC [9] [µg/mL],MIC [10] [µg/mL],MIC [11] [µg/mL],MIC [12] [µg/mL],MIC [13] [µg/mL],MIC (Escherichia coli (26R03)) [µg/mL],MIC (Escherichia coli (K-12)) [µg/mL],MIC (Proteus rettgeri (T-2)) [µg/mL],MIC [16] [µg/mL],also measured
"Cn1nnnc1SCC1=C(C(=O)O)N2C(=O)C(NC(=O)[C@H](NC(=O)c3cnc4c(c3O)C(=O)CCC4)c3ccc(O)cc3)C2SC1 (single isomer, unassigned) [Synthesis Example 2, 7-[D-(-)-α-(4-hydroxy-5-oxo-5,6,7,8-tetrahydroquinoline-3-carboxamide)-α-(4-hydroxyphenyl)acetamido]-3-[[(1-methyl-1H-tetrazol-5-yl)thio]methyl]-Δ^3-cephem-4-carboxylic acid]",6.25,12.5,> 200,3.13,0.2,6.25,3.13,1.56,0.78,0.78,12.5,6.25,6.25,12.5,0.78,0.78,0.78,0.39,1.56,3.13,"MIC [8, 19]: 0.39 µg/mL; MIC [14, 20]: 1.56 µg/mL; MIC [15, 21]: 0.39 µg/mL"
"Cc1nnc(SCC2=C(C(=O)O)N3C(=O)[C@@H](NC(=O)Cn4cnnn4)[C@H]3SC2)s1 [CEZ, sodium 7-[1-(1H)-tetrazoylacetamido]-3-[2-(5-methyl-1,3,4-thiadiazoyl)-thiomethyl]-Δ^3, cephem-4-carboxylate, reference compound]",> 200,> 200,> 200,0.78,3.13,> 100,> 100,> 100,,3.13,100,6.25,> 100,> 100,3.13,3.13,50,3.13,12.5,> 100,"MIC (Proteus vulgaris (OX-19); Proteus vulgaris, 18 h): 1.56 µg/mL; MIC ([8]; ATCC10031, 18 h): 1.56 µg/mL; MIC [14, 20]: 0.2 µg/mL; MIC ([15]; ENTERITIDIS, 18 h): 1.56 µg/mL"
"CC1(C)S[C@@H]2[C@H](NC(=O)C(C(=O)O)c3ccccc3)C(=O)N2[C@H]1C(=O)O (stereo partly drawn) [CB-PC, disodium-α-carboxybenzyl penicillin, reference compound]",100,100,> 200,12.5,,100,6.25,25,6.25,6.25,100,> 100,25,> 100,100,25,3.13,6.25,3.13,> 100,"MIC ([3]; IFO3320, 18 h): 1.56 µg/mL; MIC [8, 19]: > 100 µg/mL; MIC ([14]; 18 h): 1.56 µg/mL; MIC ([15]; ENTERITIDIS, 18 h): 1.56 µg/mL"
"Cn1nnnc1SCC1=C(C(=O)O)N2C(=O)C(NC(=O)[C@H](NC(=O)c3cnc4c(c3O)C(=O)CCC4)c3ccccc3)C2SC1 (single isomer, unassigned) [Synthesis Example 1, 7-[D-(-)-α-(4-hydroxy-5-oxo-5,6,7,8-tetrahydroquinoline-3-carboxamide)phenylacetamido)-3-[[(1-methyl-1H-tetrazol-5-yl)thio]methyl]-Δ^3-cephem-4-carboxylic acid]",12.5,12.5,> 200,3.13,0.2,12.5,3.13,3.13,1.56,0.78,25,6.25,3.13,12.5,1.56,0.78,1.56,0.78,1.56,6.25,"MIC [8, 19]: 0.2 µg/mL; MIC [14, 20]: 1.56 µg/mL; MIC [15, 21]: 0.78 µg/mL"
